Experimental data: patent EP3906926A1, “PROLINE HYDROXYLASE INHIBITORS FOR USE IN THE SKELETAL MUSCLE REGENERATION” (Policlinico San Donato S.p.A.- Istituto di Ricovero e Cura …, priority 2020, dated 2021)

Columns and labels:
C2C12 murine myoblasts = experiment: CellTox Cytotoxicity Assay; details: at IC50 concentrations (50 µM IOX2, 40 µM FG-4592), 24 hours, vs untreated controls
Method: To assess PHDs inhibitors cytotoxicity, 5 x 10^3 C2C12 murine myoblasts were seeded in a 96-well plate.

[1] = system: WNT7a silenced murine myoblasts (WNT7a-KO); experiment: Differentiation of WNT7a-KO versus wild type myoblasts after chemical hypoxia (fusion and differentiation indexes); type: cell-based; details: WNT7a-KO vs wild type cells, 24 hours inhibitor pre-treatment then 7 days differentiation
Method: After differentiation for 7 days in DM, cells were washed with phosphate saline buffer (PBS) and fixed for 15 minutes in 4% (w/v) paraformaldehyde at room temperature. For permeabilization and blocking, cells were incubated for 1 hour in the presence of PBS 0.1% (v/v) Triton X-100 (TX-100, Merck) and 5% (w/v) FBS (Merck) at room temperature. […] After incubation, cells were washed three times in PBS and incubated for 1 hour at room temperature with an anti-mouse FITC-conjugated secondary antibody (Jackson ImmunoResearch), diluted 1:200. […] Myogenesis was assessed by measuring the myotube area and the number of myonuclei per myotube using a fluorescent microscope (Olympus TH4-200) equipped with an acquisition camera. To quantify both differentiation and fusion indexes, ten fields were chosen randomly and, for each field, a minimum of one hundred myosin-positive myotubes with more than two myonuclei were measured using the ImageJ v1.49o software. The area and the number of nuclei per myotube was the mean of ten measurements averaged from three different experiments.
Therefore, WNT7a silencing was conducted by Crispr/Cas9 genome editing in C2C12 murine myoblasts and the effects on myogenesis were evaluated.
The knockout of WNT7a gene was obtained performing CRISPR/Cas9 genome editing. In particular, crRNAs and tracrRNA were obtained from TrueGuide™ Synthetic gRNA kit (ThermoFisher Scientific) and they were reconstituted and annealed following the manufacturer's instructions. […] Briefly, they were re-suspended using 1X Tris-EDTA buffer pH 8.0 to prepare a 100 µM stock solution. Then, gRNAs were generated preparing a mix composed of 10 µL crRNA, 10 µL tracrRNA, 10 µL annealing buffer, and 20 µL nuclease-free water. The mixture was incubated at 95 °C for 5 minutes followed by 10 mins on 78 °C, and then 25 °C for 5 minutes.
The transfection was performed seeding 5 x 10^5 murine myoblasts C2C12 in a 24-well plate.
The diluted Lipofectamine ™ CRISPRMAX ™ reagent in Opti-MEM I Medium was incubated 1 minute at room temperature and, then, it was added to gRNA/Opti-MEM I solution for 15 minutes. Then, the mixture was added to murine myoblasts and it was incubated at 37°C for 2 days. After the incubation, single-cell clones were isolated using a limiting dilution cloning in 96-well plates. The efficiency of WNT7a knockout (WNT7a-KO) was verified by sequencing.

PHDs = experiment: ODD-luciferase reporter assay (Dual-Glo) for PHDs inhibition; details: C2C12 myoblasts transfected with ODD-luciferase-pcDNA3; 24 hours at 10, 25, 50, 100 µM, normoxic conditions; linear regression
Method: The IC50 was calculated using a Dual-Glo® Luciferase Assay System kit (Promega) that allows a high-throughput analysis of mammalian cells containing the Firefly (Luciferase-pcDNA3, ODD-Luciferase-pcDNA3) and Renilla (pRL-CMV) luciferase reporters. Briefly, 5 x 10^3 cells per well were seeded in a 96-well plate, and then transfected for 24 hours with a Luciferase-pcDNA3 or an ODD-Luciferase-pcDNA3 (80 ng), containing the firefly gene reporter. A co-transfection with pRL-CMV (8 ng), containing the renilla gene reporter, was performed as an internal control, according to the ViaFect Transfection Reagent® protocol (Promega). After transfection, cells were treated with 10, 25, 50, and 100 µM IOX2 or FG-4592 (R oxadustat) for 24 hours, and then an equal volume of Dual-Glo® Luciferase Reagent was added to each well, incubated at room temperature for 30 minutes, and then analyzed with a Varioskan™ LUX Multimode Microplate Reader (ThermoFisher Scientific). Then, an equal volume of Dual-Glo® Stop & Glo® Reagent was added to each well in order to quench the luminescence from the firefly reaction and to provide the substrate for the renilla luciferase. The mixture was incubated for 30 minutes before analysis. The IC50 values were calculated by linear regression.
To this purpose, the IC50 of both compounds was determined by transiently co-transfecting C2C12 myoblasts with the ODD-luciferase-pcDNA3 plasmid, containing the Oxygen Dependent Domain (ODD) of HIF-1α, and with the pRL-CMV plasmid, as the internal control (Figure 4, panel A). Then, transfected cells were treated for 24 hours with IOX2 or FG-4592 at different concentrations (10, 25, 50, and 100 µM) under normoxic conditions, and the emitted luminescence was collated to untreated controls.
The EC50 was calculated using a Dual-Glo® Luciferase Assay System kit (Promega) that allows a high-throughput analysis of mammalian cells containing the Firefly (Luciferase-pcDNA3, ODD-Luciferase-pcDNA3) and Renilla (pRL-CMV) luciferase reporters. Briefly, 5 x 10^3 cells per well were seeded in a 96-well plate, and then transfected for 24 hours with a Luciferase-pcDNA3 or an ODD-Luciferase-pcDNA3 (80 ng), containing the firefly gene reporter. A co-transfection with pRL-CMV (8 ng), containing the renilla gene reporter, was performed as an internal control, according to the ViaFect Transfection Reagent® protocol (Promega). […] Then, an equal volume of Dual-Glo® Stop & Glo® Reagent was added to each well in order to quench the luminescence from the firefly reaction and to provide the substrate for the renilla luciferase. The mixture was incubated for 30 minutes before analysis. The EC50 values were calculated by linear regression.
The EC50 of each compound was determined by transiently co-transfecting C2C12 myoblasts with the ODD-luciferase-pcDNA3 plasmid, containing the Oxygen Dependent Domain (ODD) of HIF-1α, and with the pRL-CMV plasmid, as the internal control (Figure 12, panel A).

C57Bl/6N mice = experiment: Cardiotoxin-induced muscle regeneration in mice; type: in vivo; details: single i.p. injection 10 mg/kg one day before CTX injury; 7 days after injury; laminin staining; vs saline
Method: Experiments on muscle regeneration were conducted on 8-10 weeks old male C57Bl/6N mice, matched for weight, and purchased from Charles River Laboratories (Calco, Italy).
Cardiotoxin (CTX, from Naja mossambica, Latoxan, Portes-les-Valence, France, http://www.latoxan.net/) was dissolved in sterile saline to a final concentration of 10 µM. Mice were anesthetized by isofluorane inhalation and hindlimbs were shaved and cleaned with alcohol. Tibialis anterior (TA) muscles were injected with 45 µl of CTX with a 30-gauge needle, with 15 micro-injections of 3 µl CTX each in the mid-belly of the muscle to induce a homogeneous damage. The TA muscles of the contralateral hindlimbs were injected with a saline solution.
DMSO, diluted at 2% in saline solution, was inoculated by i.p. injection to control mice. […] Mice were sacrificed seven days after cardiotoxin treatment.
Briefly, TA muscles were frozen in liquid nitrogen-cooled isopentane and mounted in Killik embedding medium (Bio-optica). Transverse muscle sections (7 µm) were cryosectioned from the midbelly of each muscle. Sections were stained with Hematoxylin (Bio-optica)/Eosin (Merck) to reveal general muscle architecture. […] Images were acquired using Axio Lab.A1 (Zeiss) and quantified with ImageJ v1.49o software.

Structure (SMILES)	Cell toxicity (C2C12 murine myoblasts)	decrease in fusion index [1]	reduction in differentiation index [1]	IC50 (PHDs)	enhancement of cross-sectional area (CSA) of regenerating myofibers (C57Bl/6N mice)	increase of minimal Feret diameter of regenerating myofibers (C57Bl/6N mice)
O=C(O)CNC(=O)c1c(O)c2ccccc2n(Cc2ccccc2)c1=O [IOX2]	no significant changes	67%	no significant changes	50 µM	–	–
Cc1nc(C(=O)NCC(=O)O)c(O)c2ccc(Oc3ccccc3)cc12 [FG-4592, Roxadustat]	no significant changes	63%	15%	40 µM	25%	8%
